“And” between values parts separate entries of the source, which are not always exact repeats. Identical values can stand only once.

In this experiment the target is hNav1.7 (Homo sapiens, UniProt Q15858). The experiment is described as follows: cell-based. Conditions: ratio of IonWorks Quattro IC50 values, Nav1.4 over Nav1.7. (In patch-clamp work, channel activity is measured electrically.)
Sequence of hNav1.7 (Q15858 whole entry): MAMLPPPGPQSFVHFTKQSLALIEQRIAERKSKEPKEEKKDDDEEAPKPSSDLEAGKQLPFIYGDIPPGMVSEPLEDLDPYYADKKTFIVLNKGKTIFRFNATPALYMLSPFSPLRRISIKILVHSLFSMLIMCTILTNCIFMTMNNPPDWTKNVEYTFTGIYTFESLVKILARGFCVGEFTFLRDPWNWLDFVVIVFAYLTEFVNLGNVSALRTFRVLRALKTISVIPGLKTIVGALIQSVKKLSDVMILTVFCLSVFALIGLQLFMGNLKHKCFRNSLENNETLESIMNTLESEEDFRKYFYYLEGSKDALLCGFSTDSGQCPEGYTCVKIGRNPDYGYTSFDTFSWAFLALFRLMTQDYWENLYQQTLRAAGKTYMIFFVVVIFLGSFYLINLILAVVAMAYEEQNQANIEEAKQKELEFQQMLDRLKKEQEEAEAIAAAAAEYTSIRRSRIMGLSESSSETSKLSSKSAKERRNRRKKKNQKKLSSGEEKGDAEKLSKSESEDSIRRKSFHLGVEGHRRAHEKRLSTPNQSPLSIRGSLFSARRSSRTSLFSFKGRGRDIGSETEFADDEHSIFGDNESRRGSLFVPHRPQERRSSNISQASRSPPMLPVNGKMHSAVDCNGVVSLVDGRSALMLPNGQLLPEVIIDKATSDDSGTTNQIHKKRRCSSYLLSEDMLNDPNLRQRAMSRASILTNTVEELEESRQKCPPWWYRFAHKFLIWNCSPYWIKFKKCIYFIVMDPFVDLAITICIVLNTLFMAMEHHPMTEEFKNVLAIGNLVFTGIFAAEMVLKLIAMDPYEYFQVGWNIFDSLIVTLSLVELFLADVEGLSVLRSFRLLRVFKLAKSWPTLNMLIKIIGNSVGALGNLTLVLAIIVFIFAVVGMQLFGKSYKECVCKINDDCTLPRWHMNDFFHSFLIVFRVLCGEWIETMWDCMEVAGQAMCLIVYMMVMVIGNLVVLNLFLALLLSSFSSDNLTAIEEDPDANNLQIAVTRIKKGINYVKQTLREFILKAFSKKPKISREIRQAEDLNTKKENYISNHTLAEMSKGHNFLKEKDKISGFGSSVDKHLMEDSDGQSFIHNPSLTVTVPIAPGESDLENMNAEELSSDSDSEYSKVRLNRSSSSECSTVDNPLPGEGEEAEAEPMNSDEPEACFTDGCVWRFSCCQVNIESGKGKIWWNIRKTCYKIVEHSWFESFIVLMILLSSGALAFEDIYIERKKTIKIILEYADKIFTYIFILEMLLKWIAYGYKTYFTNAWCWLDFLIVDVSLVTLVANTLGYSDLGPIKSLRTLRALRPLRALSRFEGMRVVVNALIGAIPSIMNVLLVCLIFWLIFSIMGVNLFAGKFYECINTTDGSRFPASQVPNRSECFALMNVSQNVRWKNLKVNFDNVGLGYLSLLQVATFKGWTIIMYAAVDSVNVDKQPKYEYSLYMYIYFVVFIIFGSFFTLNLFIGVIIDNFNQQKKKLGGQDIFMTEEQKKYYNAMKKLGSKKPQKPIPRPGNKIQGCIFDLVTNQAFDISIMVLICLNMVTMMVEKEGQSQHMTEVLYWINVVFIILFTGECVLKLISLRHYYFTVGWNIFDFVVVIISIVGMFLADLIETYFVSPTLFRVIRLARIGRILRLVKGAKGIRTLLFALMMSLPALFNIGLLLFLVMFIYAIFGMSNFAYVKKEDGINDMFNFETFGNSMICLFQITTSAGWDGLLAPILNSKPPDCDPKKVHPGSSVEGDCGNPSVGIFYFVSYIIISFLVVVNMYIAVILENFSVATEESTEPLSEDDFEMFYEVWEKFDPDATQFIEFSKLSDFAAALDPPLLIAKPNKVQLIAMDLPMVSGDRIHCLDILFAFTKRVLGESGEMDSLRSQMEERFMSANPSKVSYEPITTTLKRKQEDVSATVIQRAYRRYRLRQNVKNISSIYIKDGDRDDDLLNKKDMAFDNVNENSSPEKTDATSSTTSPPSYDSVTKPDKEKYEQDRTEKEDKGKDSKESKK

Take `CC[C@H](C)[C@H](NC(=O)[C@H](CCC(=O)O)NC(=O)[C@H](CCCCN)NC(=O)[C@H](CCCNC(=N)N)NC(=O)[C@@H]1CSSC[C@@H]2NC(=O)[C@H](C)NC(=O)[C@H](CCCNC(=N)N)NC(=O)[C@H](CCCCN)NC(=O)[C@H](CO)NC(=O)[C@H](CC(=O)O)NC(=O)[C@@H]3CSSC[C@H](NC(=O)[C@H](CCC(=O)O)NC(=O)[C@H](CC(C)C)NC(=O)CNC(=O)[C@H](CCC(=O)O)NC(=O)[C@H](CSSC[C@H](NC(=O)[C@@H](N)Cc4ccc(O)cc4)C(=O)N[C@@H](CCC(N)=O)C(=O)N[C@@H](CCCCN)C(=O)N[C@@H](Cc4c[nH]c5ccccc45)C(=O)N[C@@H](CCSC)C(=O)N[C@@H](Cc4c[nH]c5ccccc45)C(=O)N[C@@H]([C@@H](C)O)C(=O)N3)NC2=O)C(=O)N[C@@H](CCCCN)C(=O)N[C@@H](CC(C)C)C(=O)N[C@@H](Cc2c[nH]c3ccccc23)C(=O)N1)C(N)=O` [compound 126]: the Nav1.4/Nav1.7 is 5 and 3.

For `CC[C@H](C)[C@H](NC(=O)[C@@H](NC(=O)[C@H](CCCCN)NC(=O)[C@H](CCCNC(=N)N)NC(=O)[C@@H]1CSSC[C@@H]2NC(=O)[C@H](C)NC(=O)[C@H](CCCNC(=N)N)NC(=O)[C@H](CCCCN)NC(=O)[C@H](CO)NC(=O)[C@H](CC(=O)O)NC(=O)[C@@H]3CSSC[C@H](NC(=O)[C@H](CCCNC(N)=O)NC(=O)[C@H](CC(C)C)NC(=O)CNC(=O)[C@H](CCC(=O)O)NC(=O)[C@H](CSSC[C@H](NC(=O)[C@@H](N)Cc4ccc(O)cc4)C(=O)N[C@@H](CCC(N)=O)C(=O)N[C@@H](CCCCN)C(=O)N[C@@H](Cc4c[nH]c5ccccc45)C(=O)N[C@@H](CCSC)C(=O)N[C@@H](Cc4c[nH]c5ccccc45)C(=O)N[C@@H]([C@@H](C)O)C(=O)N3)NC2=O)C(=O)N[C@@H](CCCCN)C(=O)N[C@@H](CC(C)C)C(=O)N[C@@H](Cc2c[nH]c3ccccc23)C(=O)N1)[C@@H](C)CC)C(N)=O` [compound 122], the Nav1.4/Nav1.7 is 15.

Consider `CC[C@H](C)[C@H](NC(=O)[C@@H](NC(=O)[C@H](CCCCN)NC(=O)[C@H](CCCNC(=N)N)NC(=O)[C@@H]1CSSC[C@@H]2NC(=O)[C@H](C)NC(=O)[C@H](CCCNC(=N)N)NC(=O)[C@H](CCCCN)NC(=O)[C@H](CO)NC(=O)[C@H](CC(=O)O)NC(=O)[C@@H]3CSSC[C@H](NC(=O)[C@H](Cc4ccc(C(=O)O)cc4)NC(=O)[C@H](CC(C)C)NC(=O)CNC(=O)[C@H](CCC(=O)O)NC(=O)[C@H](CSSC[C@H](NC(=O)[C@@H](N)Cc4ccc(O)cc4)C(=O)N[C@@H](CCC(N)=O)C(=O)N[C@@H](CCCCN)C(=O)N[C@@H](Cc4c[nH]c5ccccc45)C(=O)N[C@@H](CCSC)C(=O)N[C@@H](Cc4c[nH]c5ccccc45)C(=O)N[C@@H]([C@@H](C)O)C(=O)N3)NC2=O)C(=O)N[C@@H](CCCCN)C(=O)N[C@@H](CC(C)C)C(=O)N[C@@H](Cc2c[nH]c3ccccc23)C(=O)N1)[C@@H](C)CC)C(N)=O` [compound 114], for which the Nav1.4/Nav1.7 came out at 24.

Turning to `CC[C@H](C)[C@H](NC(=O)[C@@H](NC(=O)[C@H](CCCCN)NC(=O)[C@H](CCCNC(=N)N)NC(=O)[C@@H]1CSSC[C@@H]2NC(=O)[C@H](C)NC(=O)[C@H](CCCNC(=N)N)NC(=O)[C@H](CCCCN)NC(=O)[C@H](CO)NC(=O)[C@H](CC(=O)O)NC(=O)[C@@H]3CSSC[C@H](NC(=O)[C@H](CO)NC(=O)[C@H](CC(C)C)NC(=O)CNC(=O)[C@H](CCC(=O)O)NC(=O)[C@H](CSSC[C@H](NC(=O)[C@@H](N)Cc4ccc(O)cc4)C(=O)N[C@@H](CCC(N)=O)C(=O)N[C@@H](CCCCN)C(=O)N[C@@H](Cc4c[nH]c5ccccc45)C(=O)N[C@@H](CCSC)C(=O)N[C@@H](Cc4c[nH]c5ccccc45)C(=O)N[C@@H]([C@@H](C)O)C(=O)N3)NC2=O)C(=O)N[C@@H](CCCCN)C(=O)N[C@@H](CC(C)C)C(=O)N[C@@H](Cc2c[nH]c3ccccc23)C(=O)N1)[C@@H](C)CC)C(N)=O` [compound 125], the Nav1.4/Nav1.7 worked out at 17.

For `CC[C@H](C)[C@H](NC(=O)[C@H](Cc1ccc(C(=O)O)cc1)NC(=O)[C@H](CCCCN)NC(=O)[C@H](CCCNC(=N)N)NC(=O)[C@@H]1CSSC[C@@H]2NC(=O)[C@H](C)NC(=O)[C@H](CCCNC(=N)N)NC(=O)[C@H](CCCCN)NC(=O)[C@H](CO)NC(=O)[C@H](CC(=O)O)NC(=O)[C@@H]3CSSC[C@H](NC(=O)[C@H](CCC(=O)O)NC(=O)[C@H](CC(C)C)NC(=O)CNC(=O)[C@H](CCC(=O)O)NC(=O)[C@H](CSSC[C@H](NC(=O)[C@@H](N)Cc4ccc(O)cc4)C(=O)N[C@@H](CCC(N)=O)C(=O)N[C@@H](CCCCN)C(=O)N[C@@H](Cc4c[nH]c5ccccc45)C(=O)N[C@@H](CCSC)C(=O)N[C@@H](Cc4c[nH]c5ccccc45)C(=O)N[C@@H]([C@@H](C)O)C(=O)N3)NC2=O)C(=O)N[C@@H](CCCCN)C(=O)N[C@@H](CC(C)C)C(=O)N[C@@H](Cc2c[nH]c3ccccc23)C(=O)N1)C(N)=O` [compound 127], the Nav1.4/Nav1.7 came to 2.

For the molecule `CC[C@H](C)[C@H](NC(=O)[C@H](CC(C)C)NC(=O)[C@H](CCCCN)NC(=O)[C@H](CCCNC(=N)N)NC(=O)[C@@H]1CSSC[C@@H]2NC(=O)[C@H](C)NC(=O)[C@H](CCCNC(=N)N)NC(=O)[C@H](CCCCN)NC(=O)[C@H](CO)NC(=O)[C@H](CC(=O)O)NC(=O)[C@@H]3CSSC[C@H](NC(=O)[C@H](CCC(=O)O)NC(=O)[C@H](CC(C)C)NC(=O)CNC(=O)[C@H](CCC(=O)O)NC(=O)[C@H](CSSC[C@H](NC(=O)[C@@H](N)Cc4ccc(O)cc4)C(=O)N[C@@H](CCC(N)=O)C(=O)N[C@@H](CCCCN)C(=O)N[C@@H](Cc4c[nH]c5ccccc45)C(=O)N[C@@H](CCSC)C(=O)N[C@@H](Cc4c[nH]c5ccccc45)C(=O)N[C@@H]([C@@H](C)O)C(=O)N3)NC2=O)C(=O)N[C@@H](CCCCN)C(=O)N[C@@H](CC(C)C)C(=O)N[C@@H](Cc2c[nH]c3ccccc23)C(=O)N1)C(N)=O` [compound 132], the Nav1.4/Nav1.7 turned out to be 12.

As to `CC[C@H](C)[C@H](NC(=O)[C@H](CC(=O)O)NC(=O)[C@H](CCCCN)NC(=O)[C@H](CCCNC(=N)N)NC(=O)[C@@H]1CSSC[C@@H]2NC(=O)[C@H](C)NC(=O)[C@H](CCCNC(=N)N)NC(=O)[C@H](CCCCN)NC(=O)[C@H](CO)NC(=O)[C@H](CC(=O)O)NC(=O)[C@@H]3CSSC[C@H](NC(=O)[C@H](CCC(=O)O)NC(=O)[C@H](CC(C)C)NC(=O)CNC(=O)[C@H](CCC(=O)O)NC(=O)[C@H](CSSC[C@H](NC(=O)[C@@H](N)Cc4ccc(O)cc4)C(=O)N[C@@H](CCC(N)=O)C(=O)N[C@@H](CCCCN)C(=O)N[C@@H](Cc4c[nH]c5ccccc45)C(=O)N[C@@H](CCSC)C(=O)N[C@@H](Cc4c[nH]c5ccccc45)C(=O)N[C@@H]([C@@H](C)O)C(=O)N3)NC2=O)C(=O)N[C@@H](CCCCN)C(=O)N[C@@H](CC(C)C)C(=O)N[C@@H](Cc2c[nH]c3ccccc23)C(=O)N1)C(N)=O` [compound 128], the Nav1.4/Nav1.7 turned out to be 4.

For the origin of these results see patent US10344060B2 (priority 2013, dated 2019).
